Legend:
[1] = tested on: barnyardgrass; assay: Test A preemergence; format: in vivo, Echinochloa crus-galli; settings: preemergence
Outline: (§1)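 Visual injury rating, 0–100 (0 no effect, 100 complete control), vs untreated controls ~10 days after treatment in greenhouse. Pre: directed soil spray on seeded loam/sand. Post: 2–10 cm plants, 1–2 leaf stage. Formulation: non-phytotoxic solvent mix + surfactant.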

[2] = tested on: barnyardgrass; assay: Test A postemergence; format: in vivo, Echinochloa crus-galli
Outline: as §1

[3] = tested on: pigweed; assay: Test A postemergence; format: in vivo, Amaranthus retroflexus
Outline: as §1

[4] = tested on: corn; assay: Test A postemergence; format: in vivo, Zea mays
Outline: as §1

[5] = tested on: rice; assay: Test B flood; format: in vivo, Oryza sativa; settings: 250 g ai/ha, visual rating on 0 to 100 scale (0 no effect, 100 complete control), 13 to 15 days
Outline: (§2)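 Plants were grown to the 2-leaf stage, then pots were flooded to 3 cm above the soil and compounds were applied directly into the paddy water. Water depth was held for the whole test; after 13 to 15 days in a greenhouse, injury was visually rated against untreated controls (0 = no effect, 100 = complete control).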

[6] = tested on: ducksalad; assay: Test B flood; format: in vivo, Heteranthera limosa; settings: 250 g ai/ha, visual rating on 0 to 100 scale (0 no effect, 100 complete control), 13 to 15 days
Outline: as §2

[7] = tested on: blackgrass; assay: Test C preemergence; format: in vivo, Alopecurus myosuroides; settings: for Plant response rating (scale of 0 to 100), Blackgrass: Preemergence, 250 g ai/ha; for Blackgrass plant response rating / Plant response rating, Blackgrass: preemergence; for Plant response rating, Blackgrass: 62 g ai/ha, scale 0 to 100, 0 = no effect, 100 = complete control
Outline: (§3)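 Seeds were sown in a loam soil–sand blend and sprayed preemergence with compounds formulated in a non-phytotoxic solvent mixture containing surfactant. Postemergence plants, grown in peat/vermiculite medium to 2–18 cm (1- to 4-leaf stage), received the same formulation. After 13 to 15 days in a greenhouse, injury was rated visually against controls (0 = no effect, 100 = complete control).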

[8] = tested on: foxtail, giant; assay: Test C preemergence; format: in vivo, Setaria faberii; settings: for Plant response rating (scale of 0 to 100), Foxtail, Giant: Preemergence, 250 g ai/ha; for Foxtail, Giant plant response rating / Plant response rating, Foxtail, Giant: preemergence; for Plant response rating, Foxtail, Giant: 62 g ai/ha, scale 0 to 100, 0 = no effect, 100 = complete control
Outline: as §3

[9] = tested on: ragweed; assay: Test C preemergence; format: in vivo, Ambrosia elation; settings: for Plant response rating (scale of 0 to 100), Ragweed: Preemergence, 250 g ai/ha; for Ragweed plant response rating / Plant response rating, Ragweed: preemergence; for Plant response rating, Ragweed: 62 g ai/ha, scale 0 to 100, 0 = no effect, 100 = complete control
Outline: as §3

[10] = tested on: crabgrass, large; assay: Test C postemergence; format: in vivo, Digitaria sanguinalis; settings: for Plant response rating (scale of 0 to 100 where 0 is no effect and 100 is complete control), Crabgrass, Large: Postemergence, 31 g ai/ha, visually evaluated after 13 to 15 days; for Crabgrass, Large plant response rating / Plant response rating, Crabgrass, Large: postemergence; for Crabgrass, Large plant response rating: 62 g ai/ha, scale 0 to 100
Outline: as §3

[11] = tested on: ragweed; assay: Test C postemergence; format: in vivo, Ambrosia elation; settings: for Plant response rating (scale of 0 to 100 where 0 is no effect and 100 is complete control), Ragweed: Postemergence, 31 g ai/ha, visually evaluated after 13 to 15 days; for Ragweed plant response rating / Plant response rating, Ragweed: postemergence; for Ragweed plant response rating: 62 g ai/ha, scale 0 to 100
Outline: as §3

[12] = tested on: barnyardgrass; assay: Test C postemergence; format: in vivo, Echinochloa crus-galli; settings: for Plant response rating (scale of 0 to 100 where 0 is no effect and 100 is complete control), Barnyardgrass: Postemergence, 31 g ai/ha, visually evaluated after 13 to 15 days; for Barnyardgrass plant response rating / Plant response rating, Barnyardgrass: postemergence; for Barnyardgrass plant response rating: 62 g ai/ha, scale 0 to 100
Outline: as §3

[13] = tested on: oat, wild; assay: Test C postemergence; format: in vivo, Avena fatua; settings: for Plant response rating (scale of 0 to 100 where 0 is no effect and 100 is complete control), Oat, Wild: Postemergence, 31 g ai/ha, visually evaluated after 13 to 15 days; for Oat, Wild plant response rating / Plant response rating, Oat, Wild: postemergence; for Oat, Wild plant response rating: 62 g ai/ha, scale 0 to 100
Outline: as §3

[14] = 125 g ai/ha, visual injury, 0 to 100 scale, approx. 10 days
[15] = 500 g ai/ha, visual injury after approx. 10 days, 0 to 100 scale (0 no effect, 100 complete control)
[16] = Postemergence, 500 g ai/ha, visual rating after approx. 10 days, 0 to 100 scale (0 no effect, 100 complete control)
[17] = postemergence, 125 g ai/ha, about 10 days, visual rating on 0 to 100 scale (0 no effect, 100 complete control)
[18] = 31 g ai/ha, visual rating, scale 0 to 100 (0 no effect, 100 complete control), 13 to 15 days
[19] = 125 g ai/ha, scale 0 to 100, 0 is no effect, 100 is complete control
[20] = 250 g ai/ha, scale 0 to 100 (0 no effect, 100 complete control)
[21] = 125 g ai/ha, scale 0 to 100, 0 no effect, 100 complete control

Compound	Barnyardgrass plant response rating [1, 14]	Barnyardgrass plant response rating [1, 15]	Barnyardgrass plant response rating [2, 16]	Barnyardgrass plant response rating [2, 17]	Pigweed plant response rating [3, 16]	Pigweed plant response rating [3, 17]	Corn plant response rating [4, 16]	Corn plant response rating [4, 17]	Plant response rating, Rice [5]	Plant response rating, Ducksalad [6]	Plant response rating (scale of 0 to 100), Blackgrass [7]	Blackgrass plant response rating [7, 18]	Plant response rating, Blackgrass ([7]; 13 to 15 days)	Blackgrass plant response rating [7, 19]	Plant response rating (scale of 0 to 100), Foxtail, Giant [8]	Foxtail, Giant plant response rating [8, 18]	Plant response rating, Foxtail, Giant ([8]; 13 to 15 days)	Foxtail, Giant plant response rating [8, 19]	Plant response rating (scale of 0 to 100), Ragweed [9]	Ragweed plant response rating [9, 18]	further results
CCCc1cc(C(=O)NCC)nn1Cc1ccnc(C(F)(F)F)c1 [Compound 95]	100	100	100	90	100	100	100	80	20	85	100	100	100	100	100	100	100	100	100	80	Plant response rating, Ragweed ([9]; 13 to 15 days): 95; Ragweed plant response rating [9, 19]: 100; Plant response rating (scale of 0 to 100 where 0 is no effect and 100 is complete control), Crabgrass, Large [10]: 5; Crabgrass, Large plant response rating [10]: 10; Plant response rating, Crabgrass, Large [10, 20]: 45; Plant response rating, Crabgrass, Large [10, 21]: 40; Plant response rating (scale of 0 to 100 where 0 is no effect and 100 is complete control), Ragweed [11]: 45; Ragweed plant response rating [11]: 50; Plant response rating, Ragweed [11, 20]: 85; Plant response rating, Ragweed [11, 21]: 50; Plant response rating (scale of 0 to 100 where 0 is no effect and 100 is complete control), Barnyardgrass [12]: 0; Barnyardgrass plant response rating [12]: 0; Plant response rating, Barnyardgrass [12, 20]: 30; Plant response rating, Barnyardgrass [12, 21]: 0; Plant response rating (scale of 0 to 100 where 0 is no effect and 100 is complete control), Oat, Wild [13]: 5; Oat, Wild plant response rating [13]: 5; Plant response rating, Oat, Wild [13, 20]: 50; Plant response rating, Oat, Wild [13, 21]: 15
CCc1cc(C(=O)NC2CC2)nn1Cc1ccnc(OC(F)F)c1 [Compound 98]	90	100	90	90	100	100	90	80	0	70	100	70	100	100	100	100	100	100	100	95	Plant response rating, Ragweed ([9]; 13 to 15 days): 100; Ragweed plant response rating [9, 19]: 100; Plant response rating (scale of 0 to 100 where 0 is no effect and 100 is complete control), Crabgrass, Large [10]: 10; Crabgrass, Large plant response rating [10]: 15; Plant response rating, Crabgrass, Large [10, 20]: 50; Plant response rating, Crabgrass, Large [10, 21]: 45; Plant response rating (scale of 0 to 100 where 0 is no effect and 100 is complete control), Ragweed [11]: 15; Ragweed plant response rating [11]: 35; Plant response rating, Ragweed [11, 20]: 75; Plant response rating, Ragweed [11, 21]: 75; Plant response rating (scale of 0 to 100 where 0 is no effect and 100 is complete control), Barnyardgrass [12]: 0; Barnyardgrass plant response rating [12]: 0; Plant response rating, Barnyardgrass [12, 20]: 35; Plant response rating, Barnyardgrass [12, 21]: 5; Plant response rating (scale of 0 to 100 where 0 is no effect and 100 is complete control), Oat, Wild [13]: 5; Oat, Wild plant response rating [13]: 5; Plant response rating, Oat, Wild [13, 20]: 25; Plant response rating, Oat, Wild [13, 21]: 10
